Like-named read-outs stand apart in the source and are kept apart here.

The values that follow come from US8946409B2, “Polycyclic β lactam derivatives for the treatment of cancer” (Board of Regents, The University of Texas System, priority 2011, dated 2015).

One series concerns A-549. The series is described as follows: MTT assay, A-549 cells. As to conditions: A-549, Non-Small Cell Carcinoma of the Lung, 72 hours, Table 1, read-out: IC50 in Cancer Cells Using the MTT Assay. It is filed as cell-based, human. On the procedure: (§1) 8×10^3 cells/well were plated in a […]. Stock solutions of the agents were made in DMSO. Dilution of the compounds were in media with 10% FBS (fetal bovine serum). The cells were incubated in the drug for 72 hours and cell viability was determined by the MTT assay. IC50 was then calculated.

The test system of the next series is BRO. The experiment in a line: MTT assay, BRO cells. It is filed as cell-based, human. As to conditions: melanoma, 72 hours, Table 1, read-out: IC50 in Cancer Cells Using the MTT Assay. On the procedure:
as §1

Another series relates to HT-29. The series is described as follows: MTT assay, HT-29 cells. It is filed as cell-based, human. The conditions noted are these: HT-29, colon carcinoma, 72 hours, Table 1, read-out: IC50 in Cancer Cells Using the MTT Assay. On the procedure: as §1
A further series relates to MDA-231. The experiment in a line: MTT assay, MDA-231 cells. It is filed as cell-based, human. The conditions noted are these: MDA-231, breast cancer, 72 hours, Table 1, read-out: IC50 in Cancer Cells Using the MTT Assay. On the procedure: as §1
The test system of another series is PC-3. The experiment in a line: MTT assay, PC-3 cells. It is filed as cell-based, human. The conditions noted are these: PC-3, carcinoma of the prostate, 72 hours, Table 1, read-out: IC50 in Cancer Cells Using the MTT Assay. On the procedure: as §1
Another series concerns PANC-1. The experiment in a line: MTT assay, PANC-1 cells. It is filed as cell-based, human. On the procedure:
as §1

The next series deals with ASCP-1. The series is described as follows: MTT assay, ASCP-1 cells. It counts as cell-based. As to conditions: Homo sapiens, Table 2, read-out: IC50 against Human Pancreatic Cancer Lines Using the MTT Assay. On the procedure: as §1
The subject of a further series is BXPC-3. The experiment in a line: MTT assay, BXPC-3 cells. It counts as cell-based. As to conditions: Homo sapiens, Table 2, read-out: IC50 against Human Pancreatic Cancer Lines Using the MTT Assay. On the procedure:
as §1

For a further series, the system named is Miapaca-2. The series is described as follows: MTT assay, Miapaca-2 cells. It counts as cell-based, human. As to conditions: for IC50: Homo sapiens, MIA PaCa-2, Miapaca-2, Table 2, read-out: IC50 against Human Pancreatic Cancer Lines Using the MTT Assay. On the procedure:
as §1

A further series has as its system Pan02.03. The series is described as follows: MTT assay, Pan02.03 cells. It is filed as cell-based. The conditions noted are these: Homo sapiens, Table 2, read-out: IC50 against Human Pancreatic Cancer Lines Using the MTT Assay. On the procedure:
as §1

For another series, the system named is SW-1990. The series is described as follows: MTT assay, SW-1990 cells. It is filed as cell-based. The conditions noted are these: Homo sapiens, SW1990, Table 2, read-out: IC50 against Human Pancreatic Cancer Lines Using the MTT Assay. On the procedure: as §1
A further series has as its system CoLo35FG. The experiment in a line: MTT assay, CoLo35FG cells. It counts as cell-based. The conditions noted are these: Homo sapiens, Table 2, read-out: IC50 against Human Pancreatic Cancer Lines Using the MTT Assay. On the procedure: as §1
Another series relates to MPanc96 cells. The experiment in a line: In vivo anti-tumorigenic activity, luciferase-labeled MPanc96 cells injected into mouse pancreas. The arrangement: species or system athymic nude mice. On the procedure:
(§2) The anti-tumorigenic activity of TX-262 was assessed in 4 week old male athymic nude mice by using a luciferase gene, stably-expressing, highly aggressive line of human pancreatic cells, MPanc96. 2×10^5/50 ul luciferase-labeled MPanc96 cells were injected directly into the mouse pancreas. […] Bioluminescent imagining was utilized to estimate tumor volume and location and mice were then divided into two groups such that the mean tumor size was equal between the groups. For the next five weeks mice in the control group were treated with DMSO only; while Group II mice were treated Monday through Friday as follows: 100 mg/K bw i.p. at zero time [AM] and a booster dose of 25 mg/K bw i.p. 90 minutes later. Each week body weight and mortality were recorded and tumor growth was monitored by bioluminescence imaging.
Bioluminescence imaging utilized a cryogenically cooled image system coupled to a data acquisition computer running LivingImage Software [Xenogen Corp., Alameda Calif.]. Prior to imaging, the mice were anesthetized in an acrylic chamber using 1.5% isofluoroane/air mixture and injected i.p. with 40 mg/ml of luciferin potassium salt in PBS at a dose of 150 mg/K bw.
A digital grayscale animal image was acquired followed by acquisition and overlay of a pseudo color image representing the spacial distribution of detected photons emerging from active luciferase within the mouse. […]

The nature of series [1]: Body weight of tumor-bearing mice during treatment. It is filed as in vivo, athymic nude mice. The conditions noted are these: determined weekly through the treatment regimen. On the procedure: as §2
Where [2] appears, read: PANC-1, pancreatic cancer, 72 hours, Table 1, read-out: IC50 in Cancer Cells Using the MTT Assay.
The mark [3] stands for this setting: Homo sapiens, PANC-1, PANC-1, Table 2 (average of runs), read-out: IC50 against Human Pancreatic Cancer Lines Using the MTT Assay.

Take `N.N.[Cl][Pt][Cl]` [Cisplatin, cisplatin]: the IC50 was over 100 µM in the series on A-549; 5.7 µM in the series on BRO; 17 µM in the series with HT-29; 10.1 µM in the series on MDA-231; 2.1 µM in the series with PC-3; over 100 µM in the series on PANC-1 (setting [2]).
`CN1CCN(C(=O)CCC(=O)Nc2cc3c4ccccc4ccc3c3ccccc23)CC1` [Compound 1b, 1-N-6′-Chrysenyl-4′-4-N-methylpiperazine-butane-1,4-dicarboxyamide]: the concentration for half-maximal inhibition (IC50) with A-549 was over 100 µM; in the series with BRO, 33.6 µM; with HT-29, 16.7 µM; in the series on MDA-231 it was 12.2 µM; with PC-3, 27.3 µM; in the series on PANC-1 (setting [2]) it was over 100 µM.
Regarding `CS(=O)(=O)O[C@H]1C(=O)N(c2cc3c4ccccc4ccc3c3ccccc23)C1c1ccccn1` (stereo partly drawn) [Compound 12, (3R)-1-(chrysen-6-yl)-2-oxo-4-(pyridin-2-yl)azetidin-3-yl methanesulfonate], the IC50 in the series on A-549 (Homo sapiens, A549) was found to be 0.96 µM; with BRO (Homo sapiens), 0.64 µM; in the series on HT-29 (Homo sapiens) it was 0.36 µM; in the series with MDA-231 (Homo sapiens, MDA-MB-231), 0.43 µM; in the series on PC-3 (Homo sapiens), 0.51 µM; with PANC-1 (Homo sapiens, PANC-1, 72 h, PANC-1, pancreatic cancer, 72 hours, Table 1, read-out: IC50 in Cancer Cells Using the MTT Assay), 0.43 µM. Moreover, the IC50 in the series on PANC-1 (setting [3]) was under 1 µM; in the series on PANC-1 (PANC-1, Table 2 (average of runs), read-out: IC50 against Human Pancreatic Cancer Lines Using the MTT Assay) it was 0.75 µM; with ASCP-1 it was 1.5 µM; with BXPC-3, 0.43 µM; in the series with Miapaca-2, 12 µM; with Pan02.03, 0.39 µM. Also, the results for the concentration for half-maximal inhibition (IC50) in the series on SW-1990 and in the series with CoLo35FG were 1.3 µM and 2.7 µM, respectively. Further, the “Effective concentration relative to the concentration required by GEM” value in the series on Miapaca-2 (GEM-resistant line Miapaca-2) is given as “approximately one-half”. For the same molecule, the “Viable tumor mass relative to that in control mice” value with MPanc96 cells (at 5 weeks, 100 mg/K bw i.p. plus 25 mg/K bw i.p. 90 minutes later, Monday through Friday, bioluminescence imaging) is “approximately 33%”. Besides, the “Surviving (viable) mice” value in the series with MPanc96 cells (at 6 weeks, control mice 20%) turned out to be 80%. The “Weights of mice, treated versus control” value in series [1] is “No significant differences”.
As for `Nc1ccn([C@@H]2O[C@H](CO)[C@@H](O)C2(F)F)c(=O)n1` [GEM, gemcitabine], the IC50 was over 300 µM in the series with PANC-1 (setting [3]); 0.1 µM with ASCP-1; 0.3 µM in the series on BXPC-3; 25.7 µM with Miapaca-2; 0.15 µM with Pan02.03; 0.4 µM in the series with SW-1990. In the series with PANC-1 (PANC-1, Table 2 (average of runs)), the “IC50 against Human Pancreatic Cancer Lines Using the MTT Assay” value is “inactive”.
